B1: Compound I-11d4: "matuzumab-Compound I-11 (d4)" conjugate tested for M6PR binding (conjugate)
heavy: QVQLVQSGAEVKKPGASVKVSCKASGYTFTSHWMHWVRQAPGQGLEWIGEFNPSNGRTNYNEKFKSKATMTVDTSTNTAYMELSSLRSEDTAVYYCASRDYDYAGRYFDYWGQGTLVTVSSASTKGPSVFPLAPSSKSTSGGTAALGCLVKDYFPEPVTVSWNSGALTSGVHTFPAVLQSSGLYSLSSVVTVPSSSLGTQTYICNVNHKPSNTKVDKKVEPKS
light: DIQMTQSPSSLSASVGDRVTITCSASSSVTYMYWYQQKPGKAPKLLIYDTSNLASGVPSRFSGSGSGTDYTFTISSLQPEDIATYYCQQWSSHIFTFGQGTKVEIKRTVAAPSVFIFPPSDEQLKSGTASVVCLLNNFYPREAKVQWKVDNALQSGNSQESVTEQDSKDSTYSLSSTLTLSKADYEKHKVYACEVTHQGLSSPVTKSFNRGE
modifications: left off: a dimerising Fc or GST

Columns and labels:
[1] = molecular target: T1, recombinant human CI-M6PR protein (Homo sapiens, UniProt P11717); experiment: M6PR binding ELISA of matuzumab conjugates; settings: antibody conjugates of the ligand-linkers
T1 construct: purchased R&D 6418-GR-050
Method: Binding affinity of matuzumab conjugated to ligand-linkers for M6PR was determined by ELISA using the following protocol: Nunc black solid bottom MaxiSorp plates were allowed to incubate overnight at 4° C. coated with 1 μg/mL of recombinant human CI-M6PR protein (R&D, 6418-GR-050) in 50 μL PBS. The next day, coating was decanted and plates were washed 3× with PBS. Wells were blocked with 350 μL of 3% BSA-PBS for 1 hour at room temperature. […] 50 μL of diluted conjugates were added to the plate and allowed to incubate at room temperature for 2 hours. After incubation, solutions in plate were decanted and washed with 350 μL of 0.05% PBS-Tween20 three times, drying the plate each wash on a clean paper towel. 50 μL of peroxidase AffiniPure Mouse Anti-Human IgG (Jackson Immuno, 209-035-088) diluted in 3% BSA-PBS to 0.2 μg/mL was added to the plate and allowed to incubate for 1 hour at room temperature in the dark. After incubation, solutions in plate were decanted and washed with 350 μL of 0.05% PBS-Tween20 3 times, drying the plate each wash on a clean paper towel. […] 50 μL of QuantaBlu solution was added to wells and allowed to incubate for 5-10 minutes at room temperature. After incubation, plates were read on a Perkin Elmer EnVision using photometric 340 and Umbelliferone 460 filter sets for excitation and emission, respectively. Data analysis and non-linear curve-fitting was performed using GraphPad Prism.

[2] = mice, intravenous, 10 μg/mouse; serum rIgG1 at 0.5-24 hours; compared with Compound I-7 conjugate
Method: A pharmacokinetic analysis of the rIgG1 (anti-IgG2a) antibody conjugates described in the previous example was performed in mice. In particular, C57B6 mice were intravenously administered each rIgG1 antibody conjugate at 10 μg/mouse (5 mice per group). Blood was collected at 0.5, 1, 2, 6, and 24 hours and serum rIgG1 was analyzed using an ELISA kit (Abcam) according to the manufacturer's instructions. Samples were run across 3 different plates with unconjugated rIgG1 controls (UNLB-anti-IgG2a rIgG1) included on all 3 plates.

[3] = test system: human Jurkat cells; experiment: Uptake of IgG2a-Alexa488 mediated by anti-IgG2a conjugates (flow cytometry); assay type: cell-based; settings: 1 h and 24 h
Method: The anti-IgG2a conjugates were bound to IgG2a-Alexa488, as follows: equal molar ratios of anti-IgG2a and IgG2a-Alexa488 were added in tissue culture media for 30 minutes at room temperature. The resulting anti-IgG2a:IgG2a antibody-Alexa488 compositions were added to human Jurkat cells (100 k cells/50 ul per well, n=2), and Alexa488 fluorescence levels were measured (via Alexa488 measurement) at 1 hour and 24 hours by flow cytometry. Because Alexa488 accumulates in cells, this presents a way to measure total intracellular uptake by cells over time.

[4] = test system: human HepG2 cells; experiment: Transduction efficiency of AAV8 particle conjugates in HepG2 cells (GFP); assay type: cell-based; settings: increasing MOI, 72 hrs, compared with unconjugated AAV8
Method: Transduction efficiency of AAV8 particle conjugates was also measured in human HepG2 cells and compared to that of an unconjugated AAV-CMV-GFP control (“AAV8 GFP-UNLB”). HepG2 cells were transduced with increasing multiplicity of infection (MOI) of unconjugated AAV8, AAV8 conjugated to Compound I-7 (ITX-16590), and AAV conjugated to Compound I-124 (ITX-22701) or different molar rations of AAV8 conjugated to Compound I-124 (ITX-22701).
In performing the experiments described above, 2V6·11 cells (Elab Science) in DMEM (Gibco) with 10% fetal bovine serum (Gibco) were seeded onto 96-well plates (Nunc) at a concentration of 20 k cells/well 24 hours prior to infection. Jurkat cells (ATCC) in RPMI (Gibco) with 10% fetal bovine serum (Gibco) were seeded onto 96-well plates (Nunc) 1 h prior to transduction. HepG2 cells (ATCC) in EMEM (Gibco) with 10% fetal bovine serum (Gibco) were seeded onto 96-well plates (Nunc) 24 hours prior to infection. […]
After the incubation period, the medium was aspirated, the cells were washed with PBS and analyzed for GFP expression via flow cytometry on BioRad ZES Cell Analyzer (BioRad) or analyzed for luciferase levels using a luciferase assay kit (Promega) following manufacture's protocol and using a luminometer.

T1 sequence (P11717 41-1365 limits assumed): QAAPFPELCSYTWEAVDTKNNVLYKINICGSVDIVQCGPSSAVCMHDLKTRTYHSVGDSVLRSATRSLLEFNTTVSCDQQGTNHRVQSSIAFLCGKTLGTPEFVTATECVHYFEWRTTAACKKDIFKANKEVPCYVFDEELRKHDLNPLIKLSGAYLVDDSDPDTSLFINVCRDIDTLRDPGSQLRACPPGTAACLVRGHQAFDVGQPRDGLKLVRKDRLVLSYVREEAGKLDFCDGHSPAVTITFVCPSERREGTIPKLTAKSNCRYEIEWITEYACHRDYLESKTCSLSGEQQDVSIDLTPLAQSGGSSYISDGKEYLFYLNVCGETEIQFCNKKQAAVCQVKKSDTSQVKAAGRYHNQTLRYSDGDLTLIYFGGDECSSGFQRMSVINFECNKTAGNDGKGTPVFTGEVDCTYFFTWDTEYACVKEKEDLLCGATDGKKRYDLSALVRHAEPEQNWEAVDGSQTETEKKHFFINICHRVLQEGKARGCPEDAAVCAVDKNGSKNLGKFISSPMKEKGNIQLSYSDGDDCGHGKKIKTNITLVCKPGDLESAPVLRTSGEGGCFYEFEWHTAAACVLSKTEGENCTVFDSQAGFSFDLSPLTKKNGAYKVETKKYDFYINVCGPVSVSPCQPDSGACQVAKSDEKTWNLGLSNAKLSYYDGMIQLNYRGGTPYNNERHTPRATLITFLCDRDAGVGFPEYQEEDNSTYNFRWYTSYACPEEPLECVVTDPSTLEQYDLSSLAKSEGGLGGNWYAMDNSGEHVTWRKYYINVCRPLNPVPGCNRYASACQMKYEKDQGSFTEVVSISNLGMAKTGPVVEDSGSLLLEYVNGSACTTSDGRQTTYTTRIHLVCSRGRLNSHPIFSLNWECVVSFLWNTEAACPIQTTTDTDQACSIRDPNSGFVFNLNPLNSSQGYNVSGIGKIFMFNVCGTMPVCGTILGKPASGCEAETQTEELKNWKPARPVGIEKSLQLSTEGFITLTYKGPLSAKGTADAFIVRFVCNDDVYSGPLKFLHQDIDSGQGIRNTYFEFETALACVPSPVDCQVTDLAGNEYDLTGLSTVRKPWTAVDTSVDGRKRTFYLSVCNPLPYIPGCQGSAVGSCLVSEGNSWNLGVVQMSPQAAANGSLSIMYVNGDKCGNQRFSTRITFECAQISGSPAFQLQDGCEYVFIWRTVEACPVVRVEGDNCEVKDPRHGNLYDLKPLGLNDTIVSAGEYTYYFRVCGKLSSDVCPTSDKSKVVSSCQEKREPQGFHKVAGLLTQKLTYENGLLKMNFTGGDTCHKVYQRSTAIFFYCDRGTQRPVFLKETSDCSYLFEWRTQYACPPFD

Molecule	binding affinity for M6PR [1]	half-life in serum [2]	intracellular uptake (Alexa488 fluorescence) [3]	transduction efficiency (percentage of GFP positive cells, MFI) [4]
O=C(CCOCCOCCOCCN(CCOCCOCCOCCn1cc(CCO[C@H]2O[C@H](CCP(=O)(O)O)[C@@H](O)[C@H](O)[C@@H]2O)nn1)CCOCCOCCOCCn1cc(CCO[C@H]2O[C@H](CCP(=O)(O)O)[C@@H](O)[C@H](O)[C@@H]2O)nn1)Oc1c(F)c(F)c(F)c(F)c1F [Compound I-12]	weaker binding affinity to M6PR compared to Compound I-7	longer half-life	sufficiently robust uptake	
O=C(CCOCCn1cc(CCO[C@H]2O[C@H](CCP(=O)(O)O)[C@@H](O)[C@H](O)[C@@H]2O)nn1)Oc1c(F)c(F)c(F)c(F)c1F [Compound I-11]	weaker binding affinity to M6PR compared to Compound I-7	longer half-life	sufficiently robust uptake	
CC(=O)N[C@H]1[C@H](OCCCCC(=O)NCCCNC(=O)CCOCC(COCCC(=O)NCCCNC(=O)CCCCO[C@@H]2O[C@H](CO)[C@H](O)[C@H](O)[C@H]2NC(C)=O)(COCCC(=O)NCCCNC(=O)CCCCO[C@@H]2O[C@H](CO)[C@H](O)[C@H](O)[C@H]2NC(C)=O)NC(=O)CCCCCCCCCCC(=O)Oc2c(F)c(F)c(F)c(F)c2F)O[C@H](CO)[C@H](O)[C@@H]1O [Compound I-124]				greater transduction efficiency than unconjugated AAV8
O=C(CCN1C(=O)C=CC1=O)NCCOCCOCCOCCn1cc(CCO[C@H]2O[C@H](CCP(=O)(O)O)[C@@H](O)[C@H](O)[C@@H]2O)nn1 [Compound I-10]	weaker binding affinity to M6PR compared to Compound I-7	longer half-life		
O=C(CCOCCOCCOCCOCCOCCOCCOCCOCCn1cc(CCO[C@H]2O[C@H](CCP(=O)(O)O)[C@@H](O)[C@H](O)[C@@H]2O)nn1)Oc1c(F)c(F)c(F)c(F)c1F [Compound I-9]			sufficiently robust uptake	
B1	lowest			
